# Data from patent publication US20250186437A1, “CARBOLINE COMPOUNDS AND USE THEREOF” (PTC Therapeutics, Inc., priority 2021, published 2025).
# pIC50: −log10 of the molar value.
# Tested on: MOLM-13 cells
# Test: MOLM-13 Cell Proliferation Assay (indicator of DHODH inhibition)
# Format: cell-based
# Details: Homo sapiens, 72 Hours of culture, CellTiter-Glo, no uridine
# Description: The following assay was conducted to measure proliferation of MOLM-13 cells in the presence of each compound studied. This assay was included as an indicator of DHODH inhibition, as growth of MOLM-13 cells is known to depend on synthesis of pyrimidines using the de novo pathway, which can be blocked by inhibition of DHODH. • 1. MOLM-13 cells were cultured in RPMI 1640 medium+10% Fetal Bovine Serum (FBS). Only low passage cells (<20) were used for the compound tests • 2. On day 1, Log-phase growing Molm-13 Cells were counted and diluted to 10^5 cells/mL in RPMI 1640 medium+10% FBS • 3. 100 μL of diluted MOLM-13 cells in 96 well white plates were seeded, for a final density of 10^4 cells/well. • 4. 0.5 μL of pre-diluted 200× compounds or DMSO control was added to each well. The final DMSO concentration was 0.5%. • 5. After 72 Hours of culture at 37° C., 5% CO2, the plates were taken out and cooled to RT, then 50 μL CellTiter-Glo® (Promega) was added, and the composition was mixed at RT for 10 minutes. • 6. The plates were then read by ViewLux (Speed-fast, Gain-High, Bining-1X, 5 seconds).
row,Structure (SMILES),pIC50
1,"Cc1ccc(C2c3[nH]c4cc(F)c(Cl)cc4c3CCN2c2nc(C(F)(F)F)cc(C(F)(F)F)n2)c(F)c1F (stereo not shown) [Compound 155, 2-[4,6-bis(trifluoromethyl)pyrimidin-2-yl]-6-chloro-1-(2,3-difluoro-4-methylphenyl)-7-fluoro-2,3,4,9-tetrahydro-1H-pyrido[3,4-b]indole]",9.30
2,"Cc1ccnc(N2CCc3c([nH]c4cc(F)c(Cl)cc34)C2c2cccc(F)c2F)n1 (stereo not shown) [Compound 63, 6-chloro-1-(2,3-difluorophenyl)-7-fluoro-2-(4-methylpyrimidin-2-yl)-2,3,4,9-tetrahydro-1H-pyrido[3,4-b]indole]",7.88
3,"Cc1ccn(-c2ccc3[nH]c4c(c3c2)CCN(c2nc(C(F)(F)F)nc(C(F)(F)F)n2)[C@H]4c2ccc(C)c(F)c2F)n1 [Compound 530, (1S)-2-[4,6-bis(trifluoromethyl)-1,3,5-triazin-2-yl]-1-(2,3-difluoro-4-methylphenyl)-6-(3-methyl-1H-pyrazol-1-yl)-2,3,4,9-tetrahydro-1H-pyrido[3,4-b]indole]",7.96
4,"Cc1nc(N2CCc3c([nH]c4ccc(Cl)c(F)c34)C2c2ccc(/C=C/CCO)cc2)ncc1F (stereo not shown) [Compound 241, (3E)-4-{4-[6-chloro-5-fluoro-2-(5-fluoro-4-methylpyrimidin-2-yl)-2,3,4,9-tetrahydro-1H-pyrido[3,4-b]indol-1-yl]phenyl}but-3-en-1-ol]",8.47
5,"O=C(O)CCCNc1ncc([C@H]2c3[nH]c4ccc(Cl)cc4c3CCN2c2nc(C(F)(F)F)nc(C(F)(F)F)n2)cn1 [Compound 538, 4-[(5-{(1S)-2-[4,6-bis(trifluoromethyl)-1,3,5-triazin-2-yl]-6-chloro-2,3,4,9-tetrahydro-1H-pyrido[3,4-b]indol-1-yl}pyrimidin-2-yl)amino]butanoic acid]",9.40
6,"Cc1cc(C)nc(N2CCc3c([nH]c4ccc(Cl)cc34)C2c2cnc(N3CCOCC3)nc2)n1 (stereo not shown) [Compound 308, 6-chloro-2-(4,6-dimethylpyrimidin-2-yl)-1-[2-(morpholin-4-yl)pyrimidin-5-yl]-2,3,4,9-tetrahydro-1H-pyrido[3,4-b]indole]",8.42
7,"Fc1cnc(N2CCc3c([nH]c4ccc(Cl)cc34)C2c2ccc(N3CCOCC3)nc2)nc1 (stereo not shown) [Compound 382, 6-chloro-2-(5-fluoropyrimidin-2-yl)-1-[6-(morpholin-4-yl)pyridin-3-yl]-2,3,4,9-tetrahydro-1H-pyrido[3,4-b]indole]",7.87
8,"Fc1cnc(N2CCc3c([nH]c4cc(F)c(Cl)cc34)C2c2ccc(C(F)(F)F)cc2)nc1 (stereo not shown) [Compound 35, 6-chloro-7-fluoro-2-(5-fluoropyrimidin-2-yl)-1-[4-(trifluoromethyl)phenyl]-2,3,4,9-tetrahydro-1H-pyrido[3,4-b]indole]",7.36
9,"Fc1cnc(N2CCc3c([nH]c4ccc(Cl)cc34)C2c2cnc(N3CCOCC3)nc2)nc1 (stereo not shown) [Compound 364, 6-chloro-2-(5-fluoropyrimidin-2-yl)-1-[2-(morpholin-4-yl)pyrimidin-5-yl]-2,3,4,9-tetrahydro-1H-pyrido[3,4-b]indole]",8.00
10,"Cc1ccc(C2c3[nH]c4ccc(C)c(F)c4c3CCN2c2nccc(C(F)(F)F)n2)c(F)c1F (stereo not shown) [Compound 192, 1-(2,3-difluoro-4-methylphenyl)-5-fluoro-6-methyl-2-[4-(trifluoromethyl)pyrimidin-2-yl]-2,3,4,9-tetrahydro-1H-pyrido[3,4-b]indole]",8.70
11,"Cc1ccc(C2c3[nH]c4ccc(Cl)c([N+](=O)[O-])c4c3CCN2c2nccc(C(F)(F)F)n2)c(F)c1F (stereo not shown) [Compound 266, 6-chloro-1-(2,3-difluoro-4-methylphenyl)-5-nitro-2-[4-(trifluoromethyl)pyrimidin-2-yl]-2,3,4,9-tetrahydro-1H-pyrido[3,4-b]indole]",8.89
12,"Cc1ccc(C2c3[nH]c4cc(F)c(Cl)cc4c3CCN2c2nccc(C(F)(F)F)n2)c(F)c1F (stereo not shown) [Compound 140, 6-chloro-1-(2,3-difluoro-4-methylphenyl)-7-fluoro-2-[4-(trifluoromethyl)pyrimidin-2-yl]-2,3,4,9-tetrahydro-1H-pyrido[3,4-b]indole]",9.00
13,"Clc1ccc2[nH]c3c(c2c1)CCN(c1ncc(Br)cn1)[C@H]3c1cnc(N2CCOCC2)nc1 [Compound 470, (1S)-2-(5-bromopyrimidin-2-yl)-6-chloro-1-[2-(morpholin-4-yl)pyrimidin-5-yl]-2,3,4,9-tetrahydro-1H-pyrido[3,4-b]indole]",8.51
14,"Fc1ccc(C2c3[nH]c4cc(F)c(Cl)cc4c3CCN2c2ncc(F)cn2)cc1 (stereo not shown) [Compound 5, 6-chloro-7-fluoro-1-(4-fluorophenyl)-2-(5-fluoropyrimidin-2-yl)-2,3,4,9-tetrahydro-1H-pyrido[3,4-b]indole]",7.17
15,"Cc1ncc(C2c3[nH]c4cc(F)c(Cl)cc4c3CCN2c2nccc(C(F)(F)F)n2)cn1 (stereo not shown) [Compound 92, 6-chloro-7-fluoro-1-(2-methylpyrimidin-5-yl)-2-[4-(trifluoromethyl)pyrimidin-2-yl]-2,3,4,9-tetrahydro-1H-pyrido[3,4-b]indole]",7.46
16,"Cc1ccc(C2c3[nH]c4ccc(F)cc4c3CCN2c2nccc(C(F)(F)F)n2)c(F)c1F (stereo not shown) [Compound 493, 1-(2,3-difluoro-4-methylphenyl)-6-fluoro-2-[4-(trifluoromethyl)pyrimidin-2-yl]-2,3,4,9-tetrahydro-1H-pyrido[3,4-b]indole]",7.60
17,"FC(F)(F)c1ccnc(N2CCc3c([nH]c4ccc(Cl)cc34)[C@@H]2c2ccc(N3CCOCC3)nc2)n1 [Compound 473, (1S)-6-chloro-1-[6-(morpholin-4-yl)pyridin-3-yl]-2-[4-(trifluoromethyl)pyrimidin-2-yl]-2,3,4,9-tetrahydro-1H-pyrido[3,4-b]indole]",9.00
18,"FC(F)(F)c1cc(C(F)(F)F)nc(N2CCc3c([nH]c4ccc(Cl)cc34)[C@@H]2c2cnc(N3CCNC4(CC4)C3)nc2)n1 [Compound 512, (1S)-2-[4,6-bis(trifluoromethyl)pyrimidin-2-yl]-6-chloro-1-[2-(4,7-diazaspiro[2.5]octan-7-yl)pyrimidin-5-yl]-2,3,4,9-tetrahydro-1H-pyrido[3,4-b]indole]",8.80

# Results, then the compound that gave them:
row,pIC50,Structure (SMILES)
1,7.88,"CC(C)c1ccc(C2c3[nH]c4cc(F)c(Cl)cc4c3CCN2c2nccc(C#N)n2)cc1 (stereo not shown) [Compound 55, 2-{6-chloro-7-fluoro-1-[4-(propan-2-yl)phenyl]-1,3,4,9-tetrahydro-2H-pyrido[3,4-b]indol-2-yl}pyrimidine-4-carbonitrile]"
2,8.13,"Cc1ccc(C2c3[nH]c4cc(F)c(Cl)cc4c3CCN2c2nc(C)c(F)c(C)n2)cc1 (stereo not shown) [Cpd 106, 6-chloro-7-fluoro-2-(5-fluoro-4,6-dimethylpyrimidin-2-yl)-1-(4-methylphenyl)-2,3,4,9-tetrahydro-1H-pyrido[3,4-b]indole]"
3,6.99,"Cc1nc(C)nc(N2CCc3c([nH]c4ccc(N(C)C)cc34)C2c2cnc(N3CCOCC3)nc2)n1 (stereo not shown) [Compound 331, 2-(4,6-dimethyl-1,3,5-triazin-2-yl)-N,N-dimethyl-1-[2-(morpholin-4-yl)pyrimidin-5-yl]-2,3,4,9-tetrahydro-1H-pyrido[3,4-b]indol-6-amine]"
4,8.35,"Cc1ccc(C2c3[nH]c4ccc(Cl)cc4c3CCN2c2nc(C)cc(C#N)n2)cc1 (stereo not shown) [Compound 379, 2-[6-chloro-1-(4-methylphenyl)-1,3,4,9-tetrahydro-2H-pyrido[3,4-b]indol-2-yl]-6-methylpyrimidine-4-carbonitrile]"
5,7.49,"Fc1ccc(C2c3[nH]c4cc(F)c(Cl)cc4c3CCN2c2nccc(Cl)n2)cc1 (stereo not shown) [Compound 15, 6-chloro-2-(4-chloropyrimidin-2-yl)-7-fluoro-1-(4-fluorophenyl)-2,3,4,9-tetrahydro-1H-pyrido[3,4-b]indole]"
6,8.31,"Cc1nc(C)nc(N2CCc3c([nH]c4ccc(Cl)cc34)C2c2ccc(C#N)cc2F)n1 (stereo not shown) [Compound 453, 4-[6-chloro-2-(4,6-dimethyl-1,3,5-triazin-2-yl)-2,3,4,9-tetrahydro-1H-pyrido[3,4-b]indol-1-yl]-3-fluorobenzonitrile]"
7,8.01,"Cc1cc(C)nc(N2CCc3c([nH]c4cc(F)c(Cl)cc34)C2c2ccc(C#N)cc2)n1 (stereo not shown) [Compound 93, 4-[6-chloro-2-(4,6-dimethylpyrimidin-2-yl)-7-fluoro-2,3,4,9-tetrahydro-1H-pyrido[3,4-b]indol-1-yl]benzonitrile]"
8,7.83,"Cc1ccc(C2c3[nH]c4cc(F)c(Cl)cc4c3CCN2c2nccc(C#N)n2)cc1 (stereo not shown) [Compound 44, 2-[6-chloro-7-fluoro-1-(4-methylphenyl)-1,3,4,9-tetrahydro-2H-pyrido[3,4-b]indol-2-yl]pyrimidine-4-carbonitrile]"
9,7.83,"COc1nc(C)nc(N2CCc3c([nH]c4ccc(Cl)cc34)C2c2cnc(N3CCOCC3)nc2)n1 (stereo not shown) [Compound 295, 6-chloro-2-(4-methoxy-6-methyl-1,3,5-triazin-2-yl)-1-[2-(morpholin-4-yl)pyrimidin-5-yl]-2,3,4,9-tetrahydro-1H-pyrido[3,4-b]indole]"
10,7.92,"Cc1ccc(C2c3[nH]c4c(N)cc(Cl)cc4c3CCN2c2nc(C)nc(C)n2)cc1 (stereo not shown) [Compound 292, 6-chloro-2-(4,6-dimethyl-1,3,5-triazin-2-yl)-1-(4-methylphenyl)-2,3,4,9-tetrahydro-1H-pyrido[3,4-b]indol-8-amine]"
